Data reported in patent US4477443A, “Tylosin derivatives, their preparation and pharmaceutical compositions containing them” (Zaidan Hojin Biselbutsu Kagaku Kenkyu Kai (Microbial …, priority 1981, dated 1984).
In brackets after ≈: the same amount, converted by molar mass. Read-outs that look alike come from different tables or passages of the source.

Experiments:
Assay in all cases: antimicrobial activity (MIC), Table I
Assay type in all cases: cell-based
Staph. aureus 193 = details: Staphylococcus aureus
Staph. aureus 209 P = details: Staphylococcus aureus
Staph. aureus MS 9861 = details: Staphylococcus aureus, MS9861
Sarcina lutea PCI 1001 = details: Micrococcus luteus, PCI1001
B. subtilis NRRL B-558 = details: Bacillus subtilis, NRRLB558
Coryn. bovis 1810 = details: Corynebacterium bovis
E. coli NIHJ = details: Escherichia coli
E. coli K-12 = details: Escherichia coli, K12
E. coli K-12 R-5 = details: Escherichia coli, K12R5
Kleb. pneumoniae PCI 602 = details: Klebsiella pneumoniae, PCI602
[1] = test system: Shigella dysenteriae JS 11910; details: JS11910
Sal. enteritidis 1891 = details: Salmonella enterica
E. coli K-12 ML 1410 = details: Escherichia coli, K12ML1410; E. coli K-12 ML 1410; read-out: MIC
Pro. vulgaris OX-19 = details: Proteus vulgaris, OX19; Pro. vulgaris OX-19; read-out: MIC
[2] = Staph. aureus 193, read-out: MIC
[3] = Staph. aureus 209 P, read-out: MIC
[4] = Staph. aureus MS 9861, read-out: MIC
[5] = Sarcina lutea PCI 1001, read-out: MIC
[6] = B. subtilis NRRL B-558, read-out: MIC
[7] = Coryn. bovis 1810, read-out: MIC
[8] = E. coli K-12 R-5, read-out: MIC
[9] = Kleb. pneumoniae PCI 602, read-out: MIC
[10] = Sal. enteritidis 1891, read-out: MIC

| Structure (SMILES) | MIC (Staph. aureus 193; [2]) [µg/mL] | MIC (Staph. aureus 209 P; [3]) [µg/mL] | MIC (Staph. aureus MS 9861; [4]) [µg/mL] | MIC (Sarcina lutea PCI 1001; [5]) [µg/mL] | MIC (B. subtilis NRRL B-558; [6]) [µg/mL] | MIC (Coryn. bovis 1810; [7]) [µg/mL] | MIC (E. coli NIHJ; E. coli NIHJ, read-out: MIC) [µg/mL] | MIC (E. coli K-12; E. coli K-12, read-out: MIC) [µg/mL] | MIC (E. coli K-12 R-5; [8]) [µg/mL] | MIC (Kleb. pneumoniae PCI 602; [9]) [µg/mL] | MIC [1] [µg/mL] | MIC (Sal. enteritidis 1891; [10]) [µg/mL] | further results |
| --- | --- | --- | --- | --- | --- | --- | --- | --- | --- | --- | --- | --- | --- |
| CCC1OC(=O)CC(O)C(C)C(OC2OC(C)C(O)C(N(C)C)C2O)C(CC=O)CC(C)C(=O)C=CC(C)=CC1CN(C)Cc1ccccc1 (centres unmarked) [Example 25, 23-deoxy-23-(N-methylbenzylamino)mycaminosyl tylonolide] | 0.2 (≈ 0.285 µM) | < 0.2 | 0.2 (≈ 0.285 µM) | 0.39 (≈ 0.556 µM) | 3.12 (≈ 4.45 µM) | < 0.2 | 1.56 (≈ 2.23 µM) | 3.12 (≈ 4.45 µM) | 6.25 (≈ 8.92 µM) | 0.39 (≈ 0.556 µM) | 3.12 (≈ 4.45 µM) | 1.56 (≈ 2.23 µM) | – |
| CCC1OC(=O)CC(O)C(C)C(OC2OC(C)CC(N(C)C)C2O)C(CC=O)CC(C)C(=O)C=CC(C)=CC1CN1CCC(=O)CC1 (centres unmarked) [Example 28, 23,4'-dideoxy-23-(4-pipridone)mycaminosyl tylonolide] | < 0.2 | < 0.2 | 0.39 (≈ 0.588 µM) | < 0.2 | < 0.2 | 0.39 (≈ 0.588 µM) | 3.12 (≈ 4.71 µM) | 6.25 (≈ 9.43 µM) | 6.25 (≈ 9.43 µM) | 1.56 (≈ 2.35 µM) | 0.78 (≈ 1.18 µM) | 6.25 (≈ 9.43 µM) | – |
| CCOC(=O)NCC1C=C(C)C=CC(=O)C(C)CC(CC=O)C(OC2OC(C)CC(N(C)C)C2O)C(C)C(O)CC(=O)OC1CC (centres unmarked) [Example 78, 23,4'-Dideoxy-23-ethoxycarbonylaminomycaminosyl tylonolide] | < 0.2 | < 0.2 | 0.39 (≈ 0.597 µM) | < 0.2 | 0.39 (≈ 0.597 µM) | < 0.2 | 3.12 (≈ 4.78 µM) | 12.5 (≈ 19.1 µM) | 6.25 (≈ 9.57 µM) | 3.12 (≈ 4.78 µM) | 1.56 (≈ 2.39 µM) | 3.12 (≈ 4.78 µM) | – |
| CCC1OC(=O)CC(O)C(C)C(OC2OC(C)CC(N(C)C)C2O)C(CC=O)CC(C)C(=O)C=CC(C)=CC1CNC(=O)c1ccccc1 (centres unmarked) [Example 76, 23-Benzoylamino-23,4'-dideoxymycaminosyl tylonolide] | 0.39 (≈ 0.569 µM) | 0.39 (≈ 0.569 µM) | 0.78 (≈ 1.14 µM) | < 0.2 | 0.78 (≈ 1.14 µM) | < 0.2 | 3.12 (≈ 4.56 µM) | 6.25 (≈ 9.13 µM) | 6.25 (≈ 9.13 µM) | 3.12 (≈ 4.56 µM) | 1.56 (≈ 2.28 µM) | 3.12 (≈ 4.56 µM) | – |
| CCC1OC(=O)CC(O)C(C)C(OC2OC(C)CC(N(C)C)C2O)C(CC=O)CC(C)C(=O)C=CC(C)=CC1CN1CCCCC1 (centres unmarked) [Example 17, 23,4'-dideoxy-23-piperidinomycaminosyl tylonolide] | 0.78 (≈ 1.2 µM) | 0.39 (≈ 0.601 µM) | 1.56 (≈ 2.4 µM) | < 0.2 | 0.39 (≈ 0.601 µM) | < 0.2 | 0.78 (≈ 1.2 µM) | 3.12 (≈ 4.81 µM) | 1.56 (≈ 2.4 µM) | 1.56 (≈ 2.4 µM) | < 0.2 | 0.39 (≈ 0.601 µM) | MIC (E. coli K-12 ML 1410): 0.78 µg/mL (≈ 1.2 µM); MIC (Pro. vulgaris OX-19): 0.78 µg/mL (≈ 1.2 µM) |
| CCC1OC(=O)CC(O)C(C)C(OC2OC(C)CC(N(C)C)C2O)C(CC=O)CC(C)C(=O)C=CC(C)=CC1CN(CC)C(=O)OC (centres unmarked) [Example 83, 23,4'-Dideoxy-23-N-ethylmethoxycarbonylaminomycaminosyl tylonolide] | < 0.2 | < 0.2 | 0.39 (≈ 0.585 µM) | < 0.2 | < 0.2 | < 0.2 | 6.25 (≈ 9.37 µM) | 12.5 (≈ 18.7 µM) | 12.5 (≈ 18.7 µM) | 12.5 (≈ 18.7 µM) | 1.56 (≈ 2.34 µM) | 6.25 (≈ 9.37 µM) | – |
| CCC1OC(=O)CC(O)C(C)C(OC2OC(C)CC(N(C)C)C2O)C(CC=O)CC(C)C(=O)C=CC(C)=CC1CN1CCOCC1 (centres unmarked) [Example 29, 23,4'-dideoxy-23-morpholinomycaminosyl tylonolide] | 0.39 (≈ 0.599 µM) | 0.39 (≈ 0.599 µM) | 0.78 (≈ 1.2 µM) | < 0.2 | 0.39 (≈ 0.599 µM) | < 0.2 | 3.12 (≈ 4.79 µM) | 25 (≈ 38.4 µM) | 12.5 (≈ 19.2 µM) | 3.12 (≈ 4.79 µM) | 0.39 (≈ 0.599 µM) | 12.5 (≈ 19.2 µM) | – |
| CCC1OC(=O)CC(O)C(C)C(OC2OC(C)CC(N(C)C)C2O)C(CC=O)CC(C)C(=O)C=CC(C)=CC1CN1CCCCC1CO (centres unmarked) [Example 31, 23,4'-dideoxy-23-[2-(hydroxymethyl)piperidino]mycaminosyl tylonolide] | 0.39 (≈ 0.574 µM) | < 0.2 | 0.39 (≈ 0.574 µM) | < 0.2 | 0.39 (≈ 0.574 µM) | 0.39 (≈ 0.574 µM) | 0.39 (≈ 0.574 µM) | 0.78 (≈ 1.15 µM) | 0.78 (≈ 1.15 µM) | 0.78 (≈ 1.15 µM) | 0.78 (≈ 1.15 µM) | 0.39 (≈ 0.574 µM) | – |
| CCC1OC(=O)CC(O)C(C)C(OC2OC(C)CC(N(C)C)C2O)C(CC=O)CC(C)C(=O)C=CC(C)=CC1CNC(=O)Oc1ccccc1 (centres unmarked) [Example 80, 23,4'-Dideoxy-23-phenoxycarbonylaminomycaminosyl tylonolide] | – | – | – | – | – | – | – | – | – | – | 0.78 (≈ 1.11 µM) | – | MIC (Staph. aureus 193; 193): < 0.2 µg/mL; MIC (Staph. aureus 209 P; 209P): < 0.2 µg/mL; MIC (Staph. aureus MS 9861): < 0.2 µg/mL; MIC (Sarcina lutea PCI 1001): < 0.2 µg/mL; MIC (B. subtilis NRRL B-558): 0.39 µg/mL (≈ 0.556 µM); MIC (Coryn. bovis 1810; 1810): < 0.2 µg/mL; MIC (E. coli NIHJ): 3.12 µg/mL (≈ 4.45 µM); MIC (E. coli K-12): 6.25 µg/mL (≈ 8.92 µM); MIC (E. coli K-12 R-5): 6.25 µg/mL (≈ 8.92 µM); MIC (Kleb. pneumoniae PCI 602): 1.56 µg/mL (≈ 2.23 µM); MIC (Sal. enteritidis 1891; ENTERITIDIS): 1.56 µg/mL (≈ 2.23 µM) |
| CCC1OC(=O)CC(O)C(C)C(OC2OC(C)C(O)C(N(C)C)C2O)C(CC=O)CC(C)C(=O)C=CC(C)=CC1CN(C)CCc1ccccc1 (centres unmarked) [Example 26, 23-deoxy-23-(N-methylphenethylamino)mycaminosyl tylonolide] | 0.2 (≈ 0.28 µM) | < 0.2 | 12.5 (≈ 17.5 µM) | < 0.2 | 50 (≈ 69.9 µM) | < 0.2 | 3.12 (≈ 4.36 µM) | 12.5 (≈ 17.5 µM) | 12.5 (≈ 17.5 µM) | 0.78 (≈ 1.09 µM) | 3.12 (≈ 4.36 µM) | 3.12 (≈ 4.36 µM) | – |
| CCC1OC(=O)CC(O)C(C)C(OC2OC(C)CC(N(C)C)C2O)C(CC=O)CC(C)C(=O)C=CC(C)=CC1CN1CCN(C)CC1 (centres unmarked) [Example 32, 23,4'-dideoxy-23-(4-methylpiperazin-1-yl)mycaminosyl tylonolide] | 1.56 (≈ 2.35 µM) | 0.78 (≈ 1.17 µM) | 6.25 (≈ 9.41 µM) | < 0.2 | 1.56 (≈ 2.35 µM) | 6.25 (≈ 9.41 µM) | 3.12 (≈ 4.7 µM) | 25 (≈ 37.7 µM) | 6.25 (≈ 9.41 µM) | 25 (≈ 37.7 µM) | 0.2 (≈ 0.301 µM) | 6.25 (≈ 9.41 µM) | – |
| CCC1OC(=O)CC(O)C(C)C(OC2OC(C)CC(N(C)C)C2O)C(CC=O)CC(C)C(=O)C=CC(C)=CC1CN(CC)C(=O)Oc1ccccc1 (centres unmarked) [Example 85, 23,4'-Dideoxy-23-N-ethylphenoxycarbonylaminomycaminosyl tylonolide] | – | – | – | – | – | – | – | – | – | – | 0.78 (≈ 1.07 µM) | – | MIC (Staph. aureus 193; 193): 0.39 µg/mL (≈ 0.535 µM); MIC (Staph. aureus 209 P; 209P): < 0.2 µg/mL; MIC (Staph. aureus MS 9861): 0.39 µg/mL (≈ 0.535 µM); MIC (Sarcina lutea PCI 1001): < 0.2 µg/mL; MIC (B. subtilis NRRL B-558): < 0.2 µg/mL; MIC (Coryn. bovis 1810; 1810): < 0.2 µg/mL; MIC (E. coli NIHJ): 12.5 µg/mL (≈ 17.1 µM); MIC (E. coli K-12): 12.5 µg/mL (≈ 17.1 µM); MIC (E. coli K-12 R-5): 12.5 µg/mL (≈ 17.1 µM); MIC (Kleb. pneumoniae PCI 602): 3.12 µg/mL (≈ 4.28 µM); MIC (Sal. enteritidis 1891; ENTERITIDIS): 12.5 µg/mL (≈ 17.1 µM) |
| CCC1OC(=O)CC(O)C(C)C(OC2OC(C)C(O)C(N(C)C)C2O)C(CC=O)CC(C)C(=O)C=CC(C)=CC1CN(C)C1CCCCC1 (centres unmarked) [Example 27, 23-deoxy-23-(N-methylcyclohexylamino)mycaminosyl tylonolide] | 0.78 (≈ 1.13 µM) | < 0.2 | 3.12 (≈ 4.5 µM) | < 0.2 | < 0.2 | < 0.2 | 0.78 (≈ 1.13 µM) | 3.12 (≈ 4.5 µM) | 3.12 (≈ 4.5 µM) | < 0.2 | < 0.2 | < 0.2 | – |
